Experimental data published in patent US20250324971A1, “HERBICIDAL DERIVATIVES” (SYNGENTA CROP PROTECTION AG, priority 2022, published 2025).

Legend:
Assay type in all cases: in vivo
Setaria faberi (SETFA) [1] = assay: Pre-Emergence Test (herbicidal, glasshouse pots); details: evaluated after 13 days, five-point scale
Zea mays (ZEAMX) [2] = assay: Pre-Emergence Test (herbicidal, glasshouse pots); details: evaluated after 13 days, five-point scale
[3] = system: Echinochloa crus-galli (ECHCG); assay: Pre-Emergence Test (herbicidal, glasshouse pots); details: evaluated after 13 days, five-point scale
[4] = system: Amaranthus palmeri (AMAPA); assay: Pre-Emergence Test (herbicidal, glasshouse pots); details: evaluated after 13 days, five-point scale
[5] = system: Ipomoea hederacea (IPOHE); assay: Pre-Emergence Test (herbicidal, glasshouse pots); details: evaluated after 13 days, five-point scale
[6] = system: Amaranthus retoflexus (AMARE); assay: Post-Emergence Test (herbicidal, glasshouse pots); details: evaluated after 13 days
Method: (§1) Seeds of a variety of test species are sown in standard soil in pots (Setaria faberi (SETFA), Ipomoea hederacea (IPOHE), Echinochloa crus-galli (ECHCG), (Amaranthus retoflexus (AMARE), Zea mays (ZEAMX), and Amaranthus palmeri (AMAPA)). After 8 days cultivation under controlled conditions in a glasshouse (at 24° C./16° C., day/night; 14 hours light; 65% humidity), the plants arm sprayed with an aqueous spray solution derived from the formulation of the technical active ingredient in acetone/water (50:50) solution containing 0.5% Tween 20 (polyoxyethylene sorbitan monolaurate, CAS RN 9005-84-5). Rate of application is shown in g/ha in the tables below. The test plants are then grown in a glasshouse under controlled conditions in a glasshouse (at 24° C./16° C., day/night; 14 hours light; 65% humidity) and watered twice daily. After 13 days the test is evaluated for the percentage damage caused to the plant. The biological activities are shown in the following table on a five-point scale (5=81-100%; 4=61-80%; 3=41-60%; 2=21-40%; 1=0-20%; -=not tested).

Setaria faberi (SETFA) [7] = assay: Post-Emergence Test (herbicidal, glasshouse pots); details: rate 1000 g/ha; evaluated after 13 days
Method: as §1

[8] = system: Ipomoea hederacea (IPOHE); assay: Post-Emergence Test (herbicidal, glasshouse pots); details: evaluated after 13 days
Method: as §1

Zea mays (ZEAMX) [9] = assay: Post-Emergence Test (herbicidal, glasshouse pots); details: evaluated after 13 days
Method: as §1

[10] = system: Amaranthus palmeri (AMAPA); assay: Post-Emergence Test (herbicidal, glasshouse pots); details: evaluated after 13 days
Method: as §1

[11] = system: Echinochloa crus-galli (ECHCG); assay: Post-Emergence Test (herbicidal, glasshouse pots); details: evaluated after 13 days
Method: as §1

[12] = system: Amaranthus retoflexus (AMARE); assay: Pre-Emergence Test (herbicidal, glasshouse pots); details: evaluated after 13 days, five-point scale

**Q.** `CCn1c(Oc2cccc(Cl)c2)cc(=O)c(C(=O)O)c1-c1ccc(Cl)c(Cl)c1` [Compound 2, 6-(3-chlorophenoxy)-2-(3,4-dichlorophenyl)-1-ethyl-4-oxo-pyridine-3-carboxylic acid] was tested. Which “percentage damage caused to the plant, SETFA” value (Setaria faberi (SETFA) [1]; rate 1000 g/ha) did it give?
**A.** 5 (5=81-100%)

**Q.** What about the “percentage damage caused to the plant, ZEAMX” value (Zea mays (ZEAMX) [2]; rate 1000 g/ha) of the same compound?
**A.** 2 (2=21-40%)

**Q.** And the “percentage damage caused to the plant, ECHCG” value ([3]; rate 1000 g/ha)?
**A.** 4 (4=61-80%)

**Q.** And the “percentage damage caused to the plant, AMAPA” value ([4]; rate 1000 g/ha)?
**A.** 1 (1=0-20%)

**Q.** And the “percentage damage caused to the plant, IPHOE” value ([5]; rate 1000 g/ha)?
**A.** 4 (4=61-80%)

**Q.** And the “Post-Emergence Test AMARE percentage damage (five-point scale)” value ([6]; rate 1000 g/ha)?
**A.** 4 (4=61-80%)

**Q.** And the “Post-Emergence Test SETFA percentage damage (five-point scale)” value (Setaria faberi (SETFA) [7])?
**A.** 4 (4=61-80%)

**Q.** What about the “Post-Emergence Test IPHOE percentage damage (five-point scale)” value ([8]; rate 1000 g/ha) of the same compound?
**A.** 3 (3=41-60%)

**Q.** What about the “Post-Emergence Test ZEAMX percentage damage (five-point scale)” value (Zea mays (ZEAMX) [9]; rate 1000 g/ha) of the same compound?
**A.** 3 (3=41-60%)

**Q.** What about the “Post-Emergence Test AMAPA percentage damage (five-point scale)” value ([10]; rate 1000 g/ha) of the same compound?
**A.** 4 (4=61-80%)

**Q.** And the “Post-Emergence Test ECHCG percentage damage (five-point scale)” value ([11]; rate 1000 g/ha)?
**A.** 4 (4=61-80%)

**Q.** And the “percentage damage caused to the plant, AMARE” value ([12]; rate 1000 g/ha)?
**A.** 2 (2=21-40%)

**Q.** With `CCn1c(Oc2ccccc2F)cc(=O)c(C(=O)O)c1-c1ccc(Cl)c(Cl)c1` [Compound 3, 2-(3,4-dichlorophenyl)-1-ethyl-6-(2-fluorophenoxy)-4-oxo-pyridine-3-carboxylic acid] as the compound, how does the “percentage damage caused to the plant, SETFA” value (Setaria faberi (SETFA) [1]; rate 1000 g/ha) read?
**A.** 5 (5=81-100%)

**Q.** And the “percentage damage caused to the plant, ZEAMX” value (Zea mays (ZEAMX) [2]; rate 1000 g/ha)?
**A.** 2 (2=21-40%)

**Q.** And the “percentage damage caused to the plant, ECHCG” value ([3]; rate 1000 g/ha)?
**A.** 4 (4=61-80%)

**Q.** And the “percentage damage caused to the plant, AMAPA” value ([4]; rate 1000 g/ha)?
**A.** 1 (1=0-20%)

**Q.** And the “percentage damage caused to the plant, IPHOE” value ([5]; rate 1000 g/ha)?
**A.** 4 (4=61-80%)

**Q.** And the “Post-Emergence Test AMARE percentage damage (five-point scale)” value ([6]; rate 1000 g/ha)?
**A.** 3 (3=41-60%)

**Q.** And the “Post-Emergence Test SETFA percentage damage (five-point scale)” value (Setaria faberi (SETFA) [7])?
**A.** 4 (4=61-80%)

**Q.** And the “Post-Emergence Test IPHOE percentage damage (five-point scale)” value ([8]; rate 1000 g/ha)?
**A.** 3 (3=41-60%)

**Q.** What about the “Post-Emergence Test ZEAMX percentage damage (five-point scale)” value (Zea mays (ZEAMX) [9]; rate 1000 g/ha) of the same compound?
**A.** 2 (2=21-40%)

**Q.** And the “Post-Emergence Test AMAPA percentage damage (five-point scale)” value ([10]; rate 1000 g/ha)?
**A.** 2 (2=21-40%)

**Q.** And the “Post-Emergence Test ECHCG percentage damage (five-point scale)” value ([11]; rate 1000 g/ha)?
**A.** 4 (4=61-80%)

**Q.** And the “percentage damage caused to the plant, AMARE” value ([12]; rate 1000 g/ha)?
**A.** 2 (2=21-40%)

**Q.** For `CCn1c(Oc2ccc(F)cc2)cc(=O)c(C(=O)O)c1-c1ccc(Cl)c(Cl)c1` [Compound 4, 2-(3,4-dichlorophenyl)-1-ethyl-6-(4-fluorophenoxy)-4-oxo-pyridine-3-carboxylic acid], which “percentage damage caused to the plant, SETFA” value (Setaria faberi (SETFA) [1]; rate 1000 g/ha) is on record?
**A.** 5 (5=81-100%)

**Q.** What about the “percentage damage caused to the plant, ZEAMX” value (Zea mays (ZEAMX) [2]; rate 1000 g/ha) of the same compound?
**A.** 3 (3=41-60%)

**Q.** And the “percentage damage caused to the plant, ECHCG” value ([3]; rate 1000 g/ha)?
**A.** 5 (5=81-100%)

**Q.** What about the “percentage damage caused to the plant, AMAPA” value ([4]; rate 1000 g/ha) of the same compound?
**A.** 3 (3=41-60%)

**Q.** What about the “percentage damage caused to the plant, IPHOE” value ([5]; rate 1000 g/ha) of the same compound?
**A.** 4 (4=61-80%)

**Q.** What about the “Post-Emergence Test AMARE percentage damage (five-point scale)” value ([6]; rate 1000 g/ha) of the same compound?
**A.** 4 (4=61-80%)

**Q.** What about the “Post-Emergence Test SETFA percentage damage (five-point scale)” value (Setaria faberi (SETFA) [7]) of the same compound?
**A.** 4 (4=61-80%)

**Q.** And the “Post-Emergence Test IPHOE percentage damage (five-point scale)” value ([8]; rate 1000 g/ha)?
**A.** 3 (3=41-60%)

**Q.** What about the “Post-Emergence Test ZEAMX percentage damage (five-point scale)” value (Zea mays (ZEAMX) [9]; rate 1000 g/ha) of the same compound?
**A.** 3 (3=41-60%)

**Q.** And the “Post-Emergence Test AMAPA percentage damage (five-point scale)” value ([10]; rate 1000 g/ha)?
**A.** 4 (4=61-80%)

**Q.** What about the “Post-Emergence Test ECHCG percentage damage (five-point scale)” value ([11]; rate 1000 g/ha) of the same compound?
**A.** 4 (4=61-80%)

**Q.** And the “percentage damage caused to the plant, AMARE” value ([12]; rate 1000 g/ha)?
**A.** 3 (3=41-60%)

**Q.** Which “percentage damage caused to the plant, SETFA” value (Setaria faberi (SETFA) [1]; rate 250 g/ha) does the source give for `CCn1c(Nc2ccc(F)cc2)cc(=O)c(C(=O)O)c1-c1ccc(Cl)c(Cl)c1` [Compound 9, 2-(3,4-dichlorophenyl)-1-ethyl-6-(4-fluoroanilino)-4-oxo-pyridine-3-carboxylic acid] here?
**A.** 0

**Q.** What about the “percentage damage caused to the plant, ZEAMX” value (Zea mays (ZEAMX) [2]; rate 250 g/ha) of the same compound?
**A.** 0

**Q.** And the “percentage damage caused to the plant, ECHCG” value ([3]; rate 250 g/ha)?
**A.** 0

**Q.** And the “percentage damage caused to the plant, AMAPA” value ([4]; rate 250 g/ha)?
**A.** 1 (1=0-20%)

**Q.** What about the “percentage damage caused to the plant, IPHOE” value ([5]; rate 250 g/ha) of the same compound?
**A.** 0

**Q.** And the “Post-Emergence Test AMARE percentage damage (five-point scale)” value ([6]; rate 250 g/ha)?
**A.** 2 (2=21-40%)

**Q.** What about the “Post-Emergence Test IPHOE percentage damage (five-point scale)” value ([8]; rate 250 g/ha) of the same compound?
**A.** 4 (4=61-80%)

**Q.** And the “Post-Emergence Test ZEAMX percentage damage (five-point scale)” value (Zea mays (ZEAMX) [9]; rate 250 g/ha)?
**A.** 0

**Q.** What about the “Post-Emergence Test AMAPA percentage damage (five-point scale)” value ([10]; rate 250 g/ha) of the same compound?
**A.** 1 (1=0-20%)

**Q.** What about the “Post-Emergence Test ECHCG percentage damage (five-point scale)” value ([11]; rate 250 g/ha) of the same compound?
**A.** 1 (1=0-20%)

**Q.** And the “percentage damage caused to the plant, AMARE” value ([12]; rate 250 g/ha)?
**A.** 0
